Where two headings read alike, the source gives them in different places.
Key:
EED (1-441)-His protein = target: T1, EED (1-441)-His protein (Homo sapiens, UniProt O75530); test: EED-H3K27Me3 peptide competition binding assay by AlphaScreen
T1 construct: 30 nM EED (1-441)-His protein
In short: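 Serially diluted compound (12 points, 3-fold) incubated 20 min with 30 nM EED(1-441)-His and 15 nM biotin-H3K27Me3(19-33) peptide in 25 mM HEPES pH 8, 0.02% Tween-20, 0.5% BSA. Ni-chelate acceptor/streptavidin donor beads (10 μg/mL each) added, 1 h rt dark; 615 nm emission normalized to controls, dose-response fit for IC50.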

[1] = target: wild type PRC2 (wtPRC2) complex (Homo sapiens, UniProt O75530); test: EED LC-MS assay (SAH production by PRC2); type: biochemical
In short: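 Pentameric PRC2 (EZH2, SUZ12, EED, Rbap48, AEBP), 12 nM final, preincubated 20 min with compound and SAM, then 1.5 μM biotinylated H3K27me0 peptide, 1 μM SAM, pH 8.0, 120 min at rt. SAH quantified by LC-MS/MS with d4-SAH; control-normalized activity fitted for IC50.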

[2] = system: H3K27 methylation in G401 cell; test: ELISA (H3K27 methylation) assay in G401 cells; type: cell-based, human; conditions: Homo sapiens
In short: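 G401 cells treated 48 h with 3-fold dilutions (8 or 12 points, top 20 μM). Acid-extracted histones probed by ELISA for H3K27me3 or H3K27me2 with ECL readout, normalized to total H3. Percent inhibition versus DMSO fitted to dose-response curve for IC50.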

[3] = EED-H3K27Me3 peptide competition, AlphaScreen, read-out: (a) IC50 EED Alphascreen binding Qualified
[4] = PRC2 LC-MS assay, read-out: (b) IC50 EED LC-MS Qualified
[5] = G-401, H3K27 methylation ELISA, read-out: (c) IC50 ELISA Qualified
[6] = read-out: (a) IC50, EED Alphascreen binding Qualified
[7] = read-out: (b) IC50, EED LC-MS Qualified
[8] = G-401, read-out: (c) IC50, ELISA Qualified
[9] = read-out: (a) IC50 EED Alphascreen binding Qualified
[10] = read-out: (b) IC50 EED LC-MS Qualified
[11] = G-401, read-out: (c) IC50 ELISA Qualified

Chain of wild type PRC2 (wtPRC2) complex (O75530 whole entry): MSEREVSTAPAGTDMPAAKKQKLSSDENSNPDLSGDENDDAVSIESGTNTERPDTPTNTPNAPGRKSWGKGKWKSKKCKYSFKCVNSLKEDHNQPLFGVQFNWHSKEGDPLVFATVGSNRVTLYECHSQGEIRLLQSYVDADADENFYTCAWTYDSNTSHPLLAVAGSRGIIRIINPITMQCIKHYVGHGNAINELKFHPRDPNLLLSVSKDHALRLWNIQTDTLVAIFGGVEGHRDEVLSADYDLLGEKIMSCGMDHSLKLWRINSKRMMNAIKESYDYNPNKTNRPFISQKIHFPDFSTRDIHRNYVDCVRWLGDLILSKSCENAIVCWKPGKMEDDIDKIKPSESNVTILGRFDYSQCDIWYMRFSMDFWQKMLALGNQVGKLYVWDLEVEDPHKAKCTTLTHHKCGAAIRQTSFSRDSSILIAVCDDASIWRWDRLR
Chain of wild type PRC2 (wtPRC2) complex (Q15910 whole entry partner): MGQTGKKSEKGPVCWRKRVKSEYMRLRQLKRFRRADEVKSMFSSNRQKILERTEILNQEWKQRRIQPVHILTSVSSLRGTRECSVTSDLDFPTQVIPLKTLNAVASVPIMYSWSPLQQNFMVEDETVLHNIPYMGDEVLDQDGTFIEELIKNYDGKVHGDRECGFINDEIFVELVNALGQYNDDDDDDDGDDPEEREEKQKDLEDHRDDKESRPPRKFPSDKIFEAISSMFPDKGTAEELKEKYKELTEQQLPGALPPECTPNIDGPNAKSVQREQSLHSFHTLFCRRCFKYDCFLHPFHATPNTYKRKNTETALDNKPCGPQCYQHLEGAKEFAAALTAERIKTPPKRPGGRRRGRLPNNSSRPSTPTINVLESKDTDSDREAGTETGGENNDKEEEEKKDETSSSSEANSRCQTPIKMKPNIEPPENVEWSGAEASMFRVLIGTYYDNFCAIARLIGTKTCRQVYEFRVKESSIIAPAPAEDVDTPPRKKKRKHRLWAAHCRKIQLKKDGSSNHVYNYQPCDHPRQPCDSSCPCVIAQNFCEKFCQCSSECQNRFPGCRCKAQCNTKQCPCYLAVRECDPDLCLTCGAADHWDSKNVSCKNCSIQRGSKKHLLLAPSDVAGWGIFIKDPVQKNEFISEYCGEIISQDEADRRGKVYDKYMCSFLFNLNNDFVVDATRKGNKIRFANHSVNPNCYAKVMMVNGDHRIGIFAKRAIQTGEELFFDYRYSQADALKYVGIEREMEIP
Chain of wild type PRC2 (wtPRC2) complex (Q15022 whole entry partner): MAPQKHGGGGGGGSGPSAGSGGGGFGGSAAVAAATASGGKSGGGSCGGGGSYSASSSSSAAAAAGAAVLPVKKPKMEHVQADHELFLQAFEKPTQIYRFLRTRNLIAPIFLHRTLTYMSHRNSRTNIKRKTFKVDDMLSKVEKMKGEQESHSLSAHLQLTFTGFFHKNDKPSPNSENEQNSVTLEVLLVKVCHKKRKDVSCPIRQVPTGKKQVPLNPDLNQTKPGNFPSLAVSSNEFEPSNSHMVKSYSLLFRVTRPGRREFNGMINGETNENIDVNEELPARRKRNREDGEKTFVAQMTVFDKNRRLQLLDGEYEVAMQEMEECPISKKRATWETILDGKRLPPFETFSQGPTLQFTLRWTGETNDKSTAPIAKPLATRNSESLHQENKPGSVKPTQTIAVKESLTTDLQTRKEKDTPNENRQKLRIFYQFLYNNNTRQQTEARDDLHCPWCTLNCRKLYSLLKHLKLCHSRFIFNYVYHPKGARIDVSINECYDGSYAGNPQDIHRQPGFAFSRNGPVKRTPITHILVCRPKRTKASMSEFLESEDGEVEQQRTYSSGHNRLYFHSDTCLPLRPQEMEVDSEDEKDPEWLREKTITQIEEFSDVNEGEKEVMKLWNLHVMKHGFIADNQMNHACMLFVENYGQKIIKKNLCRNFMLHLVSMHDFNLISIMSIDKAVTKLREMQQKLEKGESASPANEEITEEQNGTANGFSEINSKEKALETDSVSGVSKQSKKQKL
Chain of wild type PRC2 (wtPRC2) complex (Q09028 whole entry partner): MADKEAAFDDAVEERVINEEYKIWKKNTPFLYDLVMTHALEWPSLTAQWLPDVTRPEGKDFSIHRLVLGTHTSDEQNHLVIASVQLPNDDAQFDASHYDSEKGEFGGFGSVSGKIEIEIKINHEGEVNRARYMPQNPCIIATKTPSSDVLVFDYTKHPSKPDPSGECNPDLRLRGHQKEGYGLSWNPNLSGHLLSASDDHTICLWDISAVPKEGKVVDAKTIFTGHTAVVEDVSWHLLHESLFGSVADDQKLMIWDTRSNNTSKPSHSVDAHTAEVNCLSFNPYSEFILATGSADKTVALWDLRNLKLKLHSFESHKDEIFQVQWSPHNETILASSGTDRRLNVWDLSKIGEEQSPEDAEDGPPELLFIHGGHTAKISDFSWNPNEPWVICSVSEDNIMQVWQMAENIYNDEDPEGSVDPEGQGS
Chain of wild type PRC2 (wtPRC2) complex (Q6ZN18 whole entry partner): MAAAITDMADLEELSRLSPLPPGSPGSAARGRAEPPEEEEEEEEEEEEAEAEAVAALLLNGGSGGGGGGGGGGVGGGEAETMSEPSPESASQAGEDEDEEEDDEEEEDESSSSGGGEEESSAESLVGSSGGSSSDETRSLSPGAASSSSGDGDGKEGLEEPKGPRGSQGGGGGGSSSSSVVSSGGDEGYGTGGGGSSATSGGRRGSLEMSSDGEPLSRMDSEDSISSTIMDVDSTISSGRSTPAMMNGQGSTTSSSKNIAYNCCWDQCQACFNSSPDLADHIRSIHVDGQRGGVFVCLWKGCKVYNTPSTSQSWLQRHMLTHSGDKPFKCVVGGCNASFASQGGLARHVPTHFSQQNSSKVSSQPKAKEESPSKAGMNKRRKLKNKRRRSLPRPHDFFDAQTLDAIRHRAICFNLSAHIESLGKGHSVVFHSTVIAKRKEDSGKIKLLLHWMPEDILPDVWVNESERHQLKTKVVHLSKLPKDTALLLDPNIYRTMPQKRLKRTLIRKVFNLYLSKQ
T1 sequence (O75530 whole entry): as the sequence (O75530 whole entry) above

| Structure (SMILES) | IC50 (EED (1-441)-His protein; [3]) [nM] | IC50 [1, 4] [nM] | IC50 [2, 5] [nM] | other results |
| --- | --- | --- | --- | --- |
| COc1cccc(F)c1CNc1ccc(-c2cn(C)nc2C)c2nncn12 [Example 186, 8-(1,3-dimethyl-1H-pyrazol-4-yl)-N-(2-fluoro-6-methoxybenzyl)-[1,2,4]triazolo[4,3-a] pyridin-5-amine] | 65.9 | 14 | 40.9 | – |
| COc1cccc(F)c1CNc1ccc(-c2c(C)noc2C)c2nncn12 [Example 139, 8-(3,5-dimethylisoxazol-4-yl)-N-(2-fluoro-6-methoxybenzyl)-[1,2,4]triazolo[4,3-a] pyridin-5-amine] | – | – | – | IC50 (EED (1-441)-His protein; [6]): 26 nM; IC50 [1, 7]: 46.5 nM; IC50 [2, 8]: 11.7 nM |
| COc1ncccc1CNc1ccc(-c2cnc(C)nc2C)c2nncn12 [Example 348, 8-(2,4-dimethylpyrimidin-5-yl)-N-((2-methoxypyridin-3-yl)methyl)-[1,2,4]triazolo [4,3-a]pyridin-5-amine] | – | – | – | IC50 (EED (1-441)-His protein; [9]): 85.1 nM; IC50 [1, 10]: 209 nM; IC50 [2, 11]: 45.5 nM |
| COc1ccccc1CNc1ccc(-c2ccc(N3CCN(C(C)C)CC3)cc2)c2nncn12 [Example 77, 8-(4-(4-isopropylpiperazin-1-yl)phenyl)-N-(2-methoxybenzyl)-[1,2,4]triazolo[4,3-a] pyridin-5-amine] | – | – | – | IC50 (EED (1-441)-His protein; [6]): 14.6 nM; IC50 [1, 7]: 106 nM; IC50 [2, 8]: 21.7 nM |
| COc1cccc(F)c1CNc1ccc(-c2cnn(C)c2C)c2nncn12 [Example 188, 8-(1,5-dimethyl-1H-pyrazol-4-yl)-N-(2-fluoro-6-methoxybenzyl)-[1,2,4]triazolo[4,3-a] pyridin-5-amine] | 55.2 | 93.1 | 34.8 | – |
| COc1ccccc1CNc1ccc(-c2ccc(S(C)(=O)=O)nc2)c2nncn12 [Example 61, N-(2-methoxybenzyl)-8-(6-(methylsulfonyl)pyridin-3-yl)-[1,2,4]triazolo[4,3-a] pyridin-5-amine] | – | – | – | IC50 (EED (1-441)-His protein; [6]): 43.8 nM; IC50 [1, 7]: 538 nM; IC50 [2, 8]: 61.9 nM |
| COc1cccc(F)c1CNc1ccc(-n2cc(C)nc2C)c2nncn12 [Example 7, 8-(2,4-Dimethyl-1H-imidazol-1-yl)-N-(2-fluoro-6-methoxybenzyl)-[1,2,4]triazolo[4,3-a]pyridin-5-amine] | – | – | – | IC50 (EED (1-441)-His protein; [6]): 18.7 nM; IC50 [1, 7]: 11.4 nM; IC50 [2, 8]: 10.1 nM |
| COc1cccc(F)c1CNc1ccc(-c2cnc(C(C)C)cc2C)c2nncn12 [Example 352, N-(2-fluoro-6-methoxybenzyl)-8-(6-isopropyl-4-methylpyridin-3-yl)-[1,2,4] triazolo[4,3-a]pyridin-5-amine] | – | – | – | IC50 (EED (1-441)-His protein; [9]): 29.5 nM; IC50 [1, 10]: 106 nM; IC50 [2, 11]: 32 nM |
| COc1cccc(F)c1CNc1ccc(-c2ccc(S(C)(=O)=O)cc2F)c2nncn12 [Example 177, 8-(2-fluoro-4-(methylsulfonyl)phenyl)-N-(2-fluoro-6-methoxybenzyl)-[1,2,4]triazolo[4,3-a]pyridin-5-amine] | 15.8 | 32.3 | 12.3 | – |
| COc1cccc(F)c1CNc1ccc(-c2ccc(C(=O)N(C)C)cc2F)c2nncn12 [Example 178, 3-fluoro-4-(5-((2-fluoro-6-methoxybenzyl)amino)-[1,2,4]triazolo[4,3-a]pyridin-8-yl)-N,N-dimethyl benzamide] | 6.5 | 18.8 | 6.5 | – |
| COc1ccccc1CNc1ccc(-c2ccc(S(=O)(=O)N(C)C)cc2)c2nncn12 [Example 34, 4-(5-((2-methoxybenzyl)amino)-[1,2,4]triazolo[4,3-a]pyridin-8-yl)-N,N-dimethyl benzenesulfonamide] | – | – | – | IC50 (EED (1-441)-His protein; [6]): 4.5 nM; IC50 [1, 7]: 358 nM; IC50 [2, 8]: 18.4 nM |
| COc1cccc(F)c1CNc1ccc(-c2c(C)cnn2C)c2nncn12 [Example 370, 8-(1,4-dimethyl-1H-pyrazol-5-yl)-N-(2-fluoro-6-methoxybenzyl)-[1,2,4]triazolo[4,3-a] pyridin-5-amine] | – | – | – | IC50 (EED (1-441)-His protein; [9]): 25.8 nM; IC50 [1, 10]: 108 nM; IC50 [2, 11]: 20 nM |
| COc1cccc(F)c1CNc1ccc(-c2c(C)ccnc2F)c2nncn12 [Example 218, 8-(2-fluoro-4-methylpyridin-3-yl)-N-(2-fluoro-6-methoxybenzyl)-[1,2,4]triazolo[4,3-a] pyridin-5-amine] | 38.3 | 79.5 | 42 | – |
| COc1cccc(F)c1CNc1ccc(-c2ccc(S(=O)(=O)C3CCNCC3)cc2)c2nncn12 [Example 132, N-(2-fluoro-6-methoxybenzyl)-8-(4-(piperidin-4-ylsulfonyl)phenyl)-[1,2,4] triazolo[4,3-a]pyridin-5-amine] | – | – | – | IC50 (EED (1-441)-His protein; [6]): 69.1 nM; IC50 [1, 7]: 64.9 nM; IC50 [2, 8]: 21.8 nM |
| COc1ccccc1CNc1ccc(-c2ccc(CN3CCN(C)CC3)cc2)c2nncn12 [Example 39, N-(2-methoxybenzyl)-8-(4-((4-methylpiperazin-1-yl)methyl)phenyl)-[1,2,4] triazolo[4,3-a]pyridin-5-amine] | – | – | – | IC50 (EED (1-441)-His protein; [6]): 15.5 nM; IC50 [1, 7]: 269 nM; IC50 [2, 8]: 37.5 nM |
| COc1ccccc1CNc1ccc(-c2ccc(C(C)=O)cc2)c2nncn12 [Example 63, 1-(4-(5-((2-methoxybenzyl)amino)-[1,2,4]triazolo[4,3-a]pyridin-8-yl)phenyl) ethanone] | – | – | – | IC50 (EED (1-441)-His protein; [6]): 76.8 nM; IC50 [1, 7]: 1700 nM; IC50 [2, 8]: 275 nM |
| COc1cccc(F)c1CNc1ccc(-c2cc(F)c(N)c(F)c2)c2nncn12 [Example 200, 8-(4-amino-3,5-difluorophenyl)-N-(2-fluoro-6-methoxybenzyl)-[1,2,4] triazolo[4,3-a]pyridin-5-amine] | 71.1 | 225 | 110 | – |

Second part, led by results:

| IC50 (EED (1-441)-His protein; [3]) [nM] | IC50 [1, 4] [nM] | IC50 [2, 5] [nM] | Structure (SMILES) | other results |
| --- | --- | --- | --- | --- |
| 30.7 | 33.2 | 4 | COc1cccc(F)c1CNc1ccc(-c2cncnc2C(F)F)c2nncn12 [Example 290, 8-(4-(difluoromethyl)pyrimidin-5-yl)-N-(2-fluoro-6-methoxybenzyl)-[1,2,4] triazolo[4,3-a]pyridin-5-amine] | – |
| 23 | 124 | 16.9 | COc1cccc(F)c1CNc1ccc(-c2cc(C(F)(F)F)ncc2C)c2nncn12 [Example 281, N-(2-fluoro-6-methoxybenzyl)-8-(5-methyl-2-(trifluoromethyl)pyridin-4-yl)-[1,2,4]triazolo[4,3-a] pyridin-5-amine] | – |
| 37 | 141 | 33.8 | COc1cccc(F)c1CNc1ccc(-c2cnccn2)c2nncn12 [Example 325, N-(2-fluoro-6-methoxybenzyl)-8-(pyrazin-2-yl)-[1,2,4]triazolo[4,3-a]pyridin-5-amine] | – |
| 50 | 159 | 62.2 | COc1cccc(F)c1CNc1ccc(-c2ccnn2C(C)C)c2nncn12 [Example 232, N-(2-fluoro-6-methoxybenzyl)-8-(1-isopropyl-1H-pyrazol-5-yl)-[1,2,4] triazolo[4,3-a]pyridin-5-amine] | – |
| 10.1 | 38.6 | 6.6 | COc1cccc(F)c1CNc1ccc(-c2ccnc(C)c2C)c2nncn12 [Example 287, 8-(2,3-dimethylpyridin-4-yl)-N-(2-fluoro-6-methoxybenzyl)-[1,2,4]triazolo[4,3-a] pyridin-5-amine] | – |
| 21.6 | 14.9 | 12.1 | COc1cccc(F)c1CNc1ccc(-c2cncnc2C)c2nncn12 [Example 221, N-(2-fluoro-6-methoxybenzyl)-8-(4-methylpyrimidin-5-yl)-[1,2,4] triazolo[4,3-a]pyridin-5-amine] | – |
| 43.3 | 92 | 38.8 | COc1cccc(F)c1CNc1ccc(-c2cnn(CCN3CCOCC3)c2)c2nncn12 [Example 226, N-(2-fluoro-6-methoxybenzyl)-8-(1-(2-morpholinoethyl)-1H-pyrazol-4-yl)-[1,2,4] triazolo[4,3-a]pyridin-5-amine] | – |
| 12.9 | 27.2 | 9.4 | COc1cccc(F)c1CNc1ccc(-c2ccncc2C)c2nncn12 [Example 230, N-(2-fluoro-6-methoxybenzyl)-8-(3-methylpyridin-4-yl)-[1,2,4]triazolo[4,3-a] pyridin-5-amine] | – |
| 86.9 | 116 | 116 | COc1cccc(F)c1CNc1ccc(-c2cccnc2C(F)(F)F)c2nncn12 [Example 237, N-(2-fluoro-6-methoxybenzyl)-8-(2-(trifluoromethyl)pyridin-3-yl)-[1,2,4]triazolo[4,3-a] pyridin-5-amine] | – |
| 9.1 | 32.3 | 7.1 | COc1ncc(-c2ccc(NCc3c(F)cccc3OC)n3cnnc23)c(C)n1 [Example 322, N-(2-fluoro-6-methoxybenzyl)-8-(2-methoxy-4-methylpyrimidin-5-yl)-[1,2,4]triazolo[4,3-a]pyridin-5-amine] | – |
| 25.1 | 159 | 10.4 | COc1cccc(F)c1CNc1ccc(-c2ccc(CNC(C)=O)nc2)c2nncn12 [Example 256, N-((5-(5-((2-fluoro-6-methoxybenzyl)amino)-[1,2,4]triazolo[4,3-a]pyridin-8-yl)pyridin-2-yl)methyl) acetamide] | – |
